The target in test [1] is T1, CD73 on U138 human neuroglioma cells (Homo sapiens, UniProt P21589).
T1 construct: U138 cells were obtained from ATCC and cultured in DMEM with 10% FBS; host or cells: U138 human neuroglioma cells
T1 sequence (P21589 27-549): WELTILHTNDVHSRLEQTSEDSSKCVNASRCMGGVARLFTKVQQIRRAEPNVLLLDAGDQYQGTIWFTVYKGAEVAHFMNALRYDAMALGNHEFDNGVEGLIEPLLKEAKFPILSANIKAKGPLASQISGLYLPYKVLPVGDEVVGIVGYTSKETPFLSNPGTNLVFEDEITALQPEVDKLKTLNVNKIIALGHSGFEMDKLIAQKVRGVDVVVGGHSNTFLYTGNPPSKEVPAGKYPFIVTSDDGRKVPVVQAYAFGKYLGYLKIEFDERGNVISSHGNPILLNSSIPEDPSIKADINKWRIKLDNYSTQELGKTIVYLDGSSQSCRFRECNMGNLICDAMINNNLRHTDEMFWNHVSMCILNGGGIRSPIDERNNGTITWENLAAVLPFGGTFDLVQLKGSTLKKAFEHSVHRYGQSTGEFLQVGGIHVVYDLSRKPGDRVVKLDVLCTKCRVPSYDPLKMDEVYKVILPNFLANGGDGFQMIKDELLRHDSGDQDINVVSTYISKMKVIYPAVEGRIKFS
Nature of the test: CD73 Cell-Based Assay. The note with it: U138 cells, AMP substrate, 2 hours at 37° C., inorganic phosphate by malachite green. A digest of the protocol:
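Whole U138 cells washed free of phosphate were incubated with 200 μM AMP (mixture concentration before equal-volume addition) plus compound in HEPES-buffered saline, pH 7.4, for 2 h at 37 °C, 5% CO2. Adenosine-forming activity read as inorganic phosphate released into supernatant by malachite green.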

A further test deals with T2, Human CD73 (Homo sapiens, UniProt P21589).
T2 construct: purchased R&D Systems; host or cells: CHO cells
T2 sequence (P21589 27-549): T1 sequence (P21589 27-549)
In words: CD73 Enzyme Assay. Format: biochemical. The note with it: 0.25 nM hCD73, 25 μM AMP, kinetic read at 360 nm; read-out: CD73 Enzyme Assay IC50.

The structures appear in SMILES notation.

In the case of `C[C@@H](Nc1nc(Cl)nc2c1ccn2[C@@H]1O[C@H](COCP(=O)(O)O)[C@@H](O)[C@H]1O)c1ccc(F)cn1` [Compound 135, [(2R,3S,4R,5R)-5-[2-chloro-4-[[(1R)-1-(5-fluoro-2-pyridyl)ethyl]-amino]pyrrolo[2,3-d]-pyrimidin-7-yl]-3,4-dihydroxy-tetrahydro-furan-2-yl]methoxy-methylphosphonic acid], the IC50 was 10 to 100 nM in test [1] and 100 to 1000 nM at Human CD73.

Regarding `Cc1ccc([C@@H](C)Nc2nc(Cl)nc3c2ccn3[C@@H]2O[C@H](COCP(=O)(O)O)[C@@H](O)[C@H]2O)cc1` [Compound 136, [(2R,3S,4R,5R)-5-[2-chloro-4-[[(1R)-1-(p-tolyl)ethyl]amino]-pyrrolo[2,3-d]-pyrimidin-7-yl]-3,4-dihydroxy-tetrahydro-furan-2-yl]methoxy-methylphosphonic acid], the IC50 (in test [1]; at Human CD73) was below 10 nM throughout.

Consider `Cc1ccc([C@@H](C)Nc2nc(C#N)nc3c2ccn3[C@@H]2O[C@H](COCP(=O)(O)O)[C@@H](O)[C@H]2O)cc1` [Compound 137, [(2R,3S,4R,5R)-5-[2-cyano-4-[[(1R)-1-(p-tolyl)ethyl]amino]-pyrrolo[2,3-d]-pyrimidin-7-yl]-3,4-dihydroxy-tetrahydro-furan-2-yl]methoxy-methylphosphonic acid], for which the half-inhibitory concentration (IC50) is below 10 nM in test [1] and 10 to 100 nM on Human CD73.

For `C[C@H](Nc1nc(C#N)nc2c1ccn2[C@@H]1O[C@H](COCP(=O)(O)O)[C@@H](O)[C@H]1O)c1ccc(F)cc1F` [Compound 138, [(2R,3S,4R,5R)-5-[2-cyano-4-[[(1S)-1-(2,4-difluorophenyl)ethyl]-amino]pyrrolo[2,3-d]-pyrimidin-7-yl]-3,4-dihydroxy-tetrahydro-furan-2-yl]methoxy-methylphosphonic acid], the IC50 (in test [1]; on Human CD73) was below 10 nM in each case.

Consider `C[C@H](Nc1nc(Cl)nc2c1ccn2[C@@H]1O[C@H](COCP(=O)(O)O)[C@@H](O)[C@H]1O)c1ccc(F)cn1` [Compound 139, [(2R,3S,4R,5R)-5-[2-chloro-4-[[(1S)-1-(5-fluoro-2-pyridyl)-ethyl]amino]pyrrolo-[2,3-d]pyrimidin-7-yl]-3,4-dihydroxy-tetrahydrofuran-2-yl]-methoxymethylphos-phonic acid], for which the IC50 was 10 to 100 nM in test [1] and below 10 nM on Human CD73.

Consider `C[C@H](Nc1nc(Cl)nc2c1ccn2[C@@H]1O[C@H](COCP(=O)(O)O)[C@@H](O)[C@H]1O)c1ccc(Cl)cc1` [Compound 140, [(2R,3S,4R,5R)-5-[2-chloro-4-[[(1S)-1-(4-chlorophenyl)ethyl]-amino]pyrrolo[2,3-d]-pyrimidin-7-yl]-3,4-dihydroxy-tetrahydro-furan-2-yl]methoxy-methylphosphonic acid], for which the IC50 (in test [1]; at Human CD73) was below 10 nM each time.

Consider `C[C@H](Nc1nc(C#N)nc2c1ccn2[C@@H]1O[C@H](COCP(=O)(O)O)[C@@H](O)[C@H]1O)c1ccc(C#N)cc1` [Compound 141, [(2R,3S,4R,5R)-5-[2-cyano-4-[[(1S)-1-(4-cyanophenyl)ethyl]-amino]pyrrolo[2,3-d]-pyrimidin-7-yl]-3,4-dihydroxy-tetrahydro-furan-2-yl]methoxy-methylphosphonic acid], for which the IC50 (in test [1]; at Human CD73) was below 10 nM in each case.

Regarding `N#Cc1nc(NC2CCC(F)(F)CC2)c2ccn([C@@H]3O[C@H](COCP(=O)(O)O)[C@@H](O)[C@H]3O)c2n1` [Compound 142, [(2R,3S,4R,5R)-5-[2-cyano-4-[(4,4-difluoro-cyclohexyl)amino]-pyrrolo[2,3-d]-pyrimidin-7-yl]-3,4-dihydroxy-tetrahydro-furan-2-yl]methoxy-methylphosphonic acid], the IC50 (in test [1]; at Human CD73) was below 10 nM in each case.

`N#Cc1nc(N2CCCCC2)c2ccn([C@@H]3O[C@H](COCP(=O)(O)O)[C@@H](O)[C@H]3O)c2n1` [Compound 143, [(2R,3S,4R,5R)-5-[2-cyano-4-(1-piperidyl)-pyrrolo[2,3-d]-pyrimidin-7-yl]-3,4-dihydroxy-tetrahydro-furan-2-yl]methoxy-methylphosphonic acid]: the IC50 is 10 to 100 nM in test [1] and below 10 nM at Human CD73.

For `C[C@@H](Nc1nc(Cl)nc2c1ccn2[C@@H]1O[C@H](COCP(=O)(O)O)[C@@H](O)[C@H]1O)c1ccc(F)cc1F` [Compound 144, [(2R,3S,4R,5R)-5-[2-chloro-4-[[(1R)-1-(2,4-difluorophenyl)-ethyl]amino]pyrrolo-[2,3-d]pyrimidin-7-yl]-3,4-dihydroxy-tetrahydrofuran-2-yl]-methoxymethylphos-phonic acid], the IC50 (in test [1]; at Human CD73) was below 10 nM each time.

Regarding `C[C@@H](Nc1nc(C#N)nc2c1ccn2[C@@H]1O[C@H](COCP(=O)(O)O)[C@@H](O)[C@H]1O)c1ccc(F)cn1` [Compound 145, [(2R,3S,4R,5R)-5-[2-cyano-4-[[(1R)-1-(5-fluoro-2-pyridyl)ethyl]-amino]pyrrolo[2,3-d]-pyrimidin-7-yl]-3,4-dihydroxy-tetrahydro-furan-2-yl]methoxy-methylphosphonic acid], the IC50 in test [1] was 10 to 100 nM; on Human CD73, 100 to 1000 nM.

As for `C[C@H](Nc1nc(C#N)nc2c1ccn2[C@@H]1O[C@H](COCP(=O)(O)O)[C@@H](O)[C@H]1O)c1ccc(F)cn1` [Compound 146], the IC50 in test [1] lay within 10 to 100 nM; on Human CD73, 100 to 1000 nM.

As to `C[C@H](Nc1nc(C#N)nc2c1ccn2[C@@H]1O[C@H](COCP(=O)(O)O)[C@@H](O)[C@H]1O)c1ccc(C(F)(F)F)cc1` [Compound 147, [(2R,3S,4R,5R)-5-[2-cyano-4-[[(1S)-1-[4-(trifluoromethyl)-phenyl]ethyl]amino]-pyrrolo[2,3-d]-pyrimidin-7-yl]-3,4-dihydroxy-tetrahydro-furan-2-yl]methoxy-methylphosphonic acid], the results for the IC50 (in test [1]; at Human CD73) were below 10 nM and 10 to 100 nM, respectively.

On to `C[C@H](Nc1nc(Cl)nc2c1ncn2[C@@H]1O[C@H](CS(=O)(=O)CP(=O)(O)O)[C@@H](O)[C@H]1O)c1ccccc1` [Compound 152, [(2S,3S,4R,5R)-5-[2-chloro-6-[[(1S)-1-phenylethyl]amino]-purin-9-yl]-3,4-dihydroxy-tetrahydro-furan-2-yl]methyl-sulfonylmethylphos-phonic acid], for which the IC50 (in test [1]; on Human CD73) was 10 to 100 nM throughout.

Turning to `C[C@H](Nc1nc(Cl)nc2c1ccn2[C@@H]1O[C@H](CS(=O)(=O)CP(=O)(O)O)[C@@H](O)[C@H]1O)c1ccccc1` [Compound 153, [(2S,3S,4R,5R)-5-[2-chloro-4-[[(1S)-1-phenylethyl]amino]-pyrrolo[2,3-d]-pyrimidin-7-yl]-3,4-dihydroxy-tetrahydro-furan-2-yl]methyl-sulfonylmethylphos-phonic acid], the IC50 was 10 to 100 nM in test [1] and below 10 nM on Human CD73.

As to `C[C@@H](Nc1nc(Cl)nc2c1ccn2[C@@H]1O[C@H](CS(=O)(=O)CP(=O)(O)O)[C@@H](O)[C@H]1O)c1ccccc1` [Compound 154, [(2S,3S,4R,5R)-5-[2-chloro-4-[[(1R)-1-phenylethyl]amino]-pyrrolo[2,3-d]-pyrimidin-7-yl]-3,4-dihydroxy-tetrahydro-furan-2-yl]methyl-sulfonylmethylphos-phonic acid], the IC50 (in test [1]; at Human CD73) was below 10 nM in each case.

On to `O=P(O)(O)CS(=O)(=O)C[C@H]1O[C@@H](n2ccc3c(NC4CCCC4)nc(Cl)nc32)[C@H](O)[C@@H]1O` [Compound 155, (((((2S,3S,4R,5R)-5-(2-chloro-4-(cyclopentylamino)-7H-pyrrolo[2,3-d]pyrimidin-7-yl)-3,4-dihydroxytetrahydrofuran-2-yl)methyl)sulfonyl)methyl)phosphonic acid], for which the IC50 (in test [1]; on Human CD73) was below 10 nM each time.

As to `O=P(O)(O)CS(=O)(=O)C[C@H]1O[C@@H](n2ccc3c(N4CC5CCCC5C4)nc(Cl)nc32)[C@H](O)[C@@H]1O` (stereo partly drawn) [Compound 156, [(2S,3S,4R,5R)-5-[4-(3,3a,4,5,6,6a-hexa-hydro-1H-cyclopenta-[c]pyrrol-2-yl)-2-chloro-pyrrolo[2,3-d]-pyrimidin-7-yl]-3,4-dihydroxy-tetrahydro-hydrofuran-2-yl]-methylsulfonylmethyl-phosphonic acid], the IC50 (in test [1]; on Human CD73) was below 10 nM throughout.

Turning to `C[C@H](c1ccccc1)N(C)c1nc(Cl)nc2c1ccn2[C@@H]1O[C@H](CS(=O)(=O)CP(=O)(O)O)[C@@H](O)[C@H]1O` [Compound 157, [(2S,3S,4R,5R)-5-[2-chloro-4-[methyl-[(1R)-1-phenylethyl]-amino]pyrrolo[2,3-d]-pyrimidin-7-yl]-3,4-dihydroxy-tetrahydro-furan-2-yl]methyl-sulfonylmethylphos-phonic acid], the IC50 (in test [1]; at Human CD73) was below 10 nM in each case.

(Values after US11591355B2 (Peloton Therapeutics, Inc., priority 2017, dated 2023).)
